# Assay results taken from ChEMBL document CHEMBL5137051 (Eur J Med Chem, 2022).
# Key:
# [1] = target: Epidermal growth factor receptor (Homo sapiens, UniProt P00533); experiment: Inhibition of wild type EGFR (unknown origin) by mobility shift assay
# [2] = target: Epidermal growth factor receptor (Homo sapiens, UniProt P00533, L858R/T790M); experiment: Inhibition of EGFR L858R/T790M mutant (unknown origin) by mobility shift assay
# [3] = target: Epidermal growth factor receptor (Homo sapiens, UniProt P00533, C797S/L858R/T790M); experiment: Inhibition of EGFR L858R/T790M/C797S mutant (unknown origin) by mobility shift assay
# [4] = target: Hepatocyte growth factor receptor (Homo sapiens, UniProt P08581); experiment: Inhibition of c-Met (unknown origin) by mobility shift assay
# [5] = system: A549; experiment: Antiproliferative activity against human A549 cells assessed as cell viability after 72 hrs by MTT assay; type: functional, cell-based; conditions: A549, 72 h
# [6] = system: NCI-H1975; experiment: Antiproliferative activity against human H1975 cells assessed as cell viability after 72 hrs by MTT assay; type: functional, cell-based; conditions: NCI-H1975, 72 h
# [7] = system: Epidermal growth factor receptor (Homo sapiens), P00533 [L858R,T790M,C797S]; conditions: dose 300.0 nM
# Sequence of Epidermal growth factor receptor (Homo sapiens), P00533 [L858R,T790M,C797S] (P00533 whole entry T790M/C797S/L858R): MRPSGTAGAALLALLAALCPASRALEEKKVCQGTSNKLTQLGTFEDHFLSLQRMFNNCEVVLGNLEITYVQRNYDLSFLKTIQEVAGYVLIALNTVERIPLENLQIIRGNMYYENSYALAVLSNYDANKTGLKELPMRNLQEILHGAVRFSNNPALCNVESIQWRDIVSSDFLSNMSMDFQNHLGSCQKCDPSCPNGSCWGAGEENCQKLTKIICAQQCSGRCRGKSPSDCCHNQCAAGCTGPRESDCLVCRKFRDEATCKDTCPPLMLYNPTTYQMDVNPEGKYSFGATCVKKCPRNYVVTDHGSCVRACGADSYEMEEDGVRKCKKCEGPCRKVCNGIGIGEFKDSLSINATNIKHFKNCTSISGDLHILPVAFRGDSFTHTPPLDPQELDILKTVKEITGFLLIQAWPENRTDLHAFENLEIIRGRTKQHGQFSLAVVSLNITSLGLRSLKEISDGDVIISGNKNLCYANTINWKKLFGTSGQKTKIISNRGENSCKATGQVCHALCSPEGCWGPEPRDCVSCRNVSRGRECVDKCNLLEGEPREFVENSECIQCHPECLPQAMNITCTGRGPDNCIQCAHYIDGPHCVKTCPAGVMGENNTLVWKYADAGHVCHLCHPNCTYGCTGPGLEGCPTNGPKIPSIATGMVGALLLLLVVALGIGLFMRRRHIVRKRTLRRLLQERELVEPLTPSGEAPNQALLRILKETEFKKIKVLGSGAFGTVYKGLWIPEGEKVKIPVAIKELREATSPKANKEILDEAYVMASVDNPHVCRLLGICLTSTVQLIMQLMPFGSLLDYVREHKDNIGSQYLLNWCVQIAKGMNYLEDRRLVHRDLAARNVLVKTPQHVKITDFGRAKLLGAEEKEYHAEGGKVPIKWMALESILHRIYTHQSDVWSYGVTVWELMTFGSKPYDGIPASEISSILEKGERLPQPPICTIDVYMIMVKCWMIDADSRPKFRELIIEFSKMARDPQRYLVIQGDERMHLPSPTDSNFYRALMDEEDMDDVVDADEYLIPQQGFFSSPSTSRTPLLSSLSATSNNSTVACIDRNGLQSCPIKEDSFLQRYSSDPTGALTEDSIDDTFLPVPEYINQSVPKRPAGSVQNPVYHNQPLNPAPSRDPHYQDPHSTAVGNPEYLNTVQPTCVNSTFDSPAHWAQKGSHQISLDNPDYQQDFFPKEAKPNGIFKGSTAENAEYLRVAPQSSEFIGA
# Sequence of Epidermal growth factor receptor (Homo sapiens, UniProt P00533) (P00533 whole entry): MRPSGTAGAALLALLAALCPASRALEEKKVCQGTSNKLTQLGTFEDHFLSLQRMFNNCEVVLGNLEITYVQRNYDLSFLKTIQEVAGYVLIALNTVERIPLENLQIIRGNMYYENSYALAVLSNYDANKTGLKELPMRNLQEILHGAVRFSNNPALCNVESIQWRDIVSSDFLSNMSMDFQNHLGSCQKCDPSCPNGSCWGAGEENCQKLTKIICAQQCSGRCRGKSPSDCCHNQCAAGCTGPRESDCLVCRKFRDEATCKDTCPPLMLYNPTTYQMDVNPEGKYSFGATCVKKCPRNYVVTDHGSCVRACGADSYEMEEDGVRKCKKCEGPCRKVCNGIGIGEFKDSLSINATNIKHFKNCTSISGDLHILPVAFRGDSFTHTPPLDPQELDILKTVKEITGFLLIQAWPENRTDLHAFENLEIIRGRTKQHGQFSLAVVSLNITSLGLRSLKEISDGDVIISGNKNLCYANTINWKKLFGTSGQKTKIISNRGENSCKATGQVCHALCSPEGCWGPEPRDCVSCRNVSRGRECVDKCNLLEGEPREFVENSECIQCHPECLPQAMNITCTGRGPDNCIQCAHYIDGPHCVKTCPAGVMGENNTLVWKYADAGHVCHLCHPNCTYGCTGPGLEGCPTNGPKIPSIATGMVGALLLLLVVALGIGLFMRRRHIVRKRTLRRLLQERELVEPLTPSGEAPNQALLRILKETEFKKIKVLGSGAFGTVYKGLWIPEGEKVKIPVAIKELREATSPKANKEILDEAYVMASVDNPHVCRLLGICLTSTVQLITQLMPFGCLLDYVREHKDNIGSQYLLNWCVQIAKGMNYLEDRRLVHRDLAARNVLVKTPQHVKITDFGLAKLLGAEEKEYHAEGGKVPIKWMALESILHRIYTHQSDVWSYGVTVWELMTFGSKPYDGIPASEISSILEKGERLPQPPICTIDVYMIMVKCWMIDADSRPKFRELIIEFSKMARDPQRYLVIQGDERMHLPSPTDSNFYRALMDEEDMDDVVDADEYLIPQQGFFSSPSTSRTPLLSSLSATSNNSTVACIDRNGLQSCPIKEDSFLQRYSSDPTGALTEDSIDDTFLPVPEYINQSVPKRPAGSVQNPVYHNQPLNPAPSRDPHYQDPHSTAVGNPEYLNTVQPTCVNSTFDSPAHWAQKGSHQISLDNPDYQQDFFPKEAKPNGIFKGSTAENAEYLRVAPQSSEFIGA
# Sequence of Hepatocyte growth factor receptor (P08581 whole entry): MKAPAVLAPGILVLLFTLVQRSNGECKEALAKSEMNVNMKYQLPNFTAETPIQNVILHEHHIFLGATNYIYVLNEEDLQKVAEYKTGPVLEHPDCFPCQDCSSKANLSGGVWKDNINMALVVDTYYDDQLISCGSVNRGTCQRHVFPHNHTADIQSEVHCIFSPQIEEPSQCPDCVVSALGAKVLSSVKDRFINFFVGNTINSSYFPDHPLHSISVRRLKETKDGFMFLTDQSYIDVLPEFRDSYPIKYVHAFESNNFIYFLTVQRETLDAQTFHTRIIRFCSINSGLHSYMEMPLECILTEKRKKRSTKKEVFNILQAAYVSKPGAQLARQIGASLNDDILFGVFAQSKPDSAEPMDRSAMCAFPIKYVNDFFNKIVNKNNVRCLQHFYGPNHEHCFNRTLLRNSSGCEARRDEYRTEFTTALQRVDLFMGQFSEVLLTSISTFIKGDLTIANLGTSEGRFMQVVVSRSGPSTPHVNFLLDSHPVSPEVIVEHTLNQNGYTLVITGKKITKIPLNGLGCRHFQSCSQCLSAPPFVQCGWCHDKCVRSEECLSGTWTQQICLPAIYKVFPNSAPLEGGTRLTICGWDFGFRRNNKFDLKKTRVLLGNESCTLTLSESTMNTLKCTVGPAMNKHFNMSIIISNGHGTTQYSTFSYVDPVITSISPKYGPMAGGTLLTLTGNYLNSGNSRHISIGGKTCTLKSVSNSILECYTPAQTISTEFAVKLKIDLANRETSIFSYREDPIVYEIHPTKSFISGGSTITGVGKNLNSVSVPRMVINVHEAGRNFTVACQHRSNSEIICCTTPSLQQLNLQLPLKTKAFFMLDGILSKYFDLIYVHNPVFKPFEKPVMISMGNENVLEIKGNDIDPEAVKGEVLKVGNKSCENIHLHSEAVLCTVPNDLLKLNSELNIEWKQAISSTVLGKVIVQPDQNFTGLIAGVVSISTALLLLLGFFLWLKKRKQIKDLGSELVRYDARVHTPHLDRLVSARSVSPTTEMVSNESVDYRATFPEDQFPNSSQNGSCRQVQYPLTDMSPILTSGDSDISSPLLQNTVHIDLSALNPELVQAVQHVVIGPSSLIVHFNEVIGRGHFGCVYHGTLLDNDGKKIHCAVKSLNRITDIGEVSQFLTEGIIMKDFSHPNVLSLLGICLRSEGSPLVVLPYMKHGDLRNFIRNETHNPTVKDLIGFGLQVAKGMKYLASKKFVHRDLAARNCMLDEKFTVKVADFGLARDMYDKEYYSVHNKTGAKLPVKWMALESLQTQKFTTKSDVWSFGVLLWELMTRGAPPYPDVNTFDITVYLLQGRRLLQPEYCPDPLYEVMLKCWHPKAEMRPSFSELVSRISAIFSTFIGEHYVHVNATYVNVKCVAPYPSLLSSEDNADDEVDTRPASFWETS
# Sequence of Epidermal growth factor receptor (Homo sapiens, UniProt P00533, C797S/L858R/T790M) (P00533 25-1210 T790M/C797S/L858R limits assumed): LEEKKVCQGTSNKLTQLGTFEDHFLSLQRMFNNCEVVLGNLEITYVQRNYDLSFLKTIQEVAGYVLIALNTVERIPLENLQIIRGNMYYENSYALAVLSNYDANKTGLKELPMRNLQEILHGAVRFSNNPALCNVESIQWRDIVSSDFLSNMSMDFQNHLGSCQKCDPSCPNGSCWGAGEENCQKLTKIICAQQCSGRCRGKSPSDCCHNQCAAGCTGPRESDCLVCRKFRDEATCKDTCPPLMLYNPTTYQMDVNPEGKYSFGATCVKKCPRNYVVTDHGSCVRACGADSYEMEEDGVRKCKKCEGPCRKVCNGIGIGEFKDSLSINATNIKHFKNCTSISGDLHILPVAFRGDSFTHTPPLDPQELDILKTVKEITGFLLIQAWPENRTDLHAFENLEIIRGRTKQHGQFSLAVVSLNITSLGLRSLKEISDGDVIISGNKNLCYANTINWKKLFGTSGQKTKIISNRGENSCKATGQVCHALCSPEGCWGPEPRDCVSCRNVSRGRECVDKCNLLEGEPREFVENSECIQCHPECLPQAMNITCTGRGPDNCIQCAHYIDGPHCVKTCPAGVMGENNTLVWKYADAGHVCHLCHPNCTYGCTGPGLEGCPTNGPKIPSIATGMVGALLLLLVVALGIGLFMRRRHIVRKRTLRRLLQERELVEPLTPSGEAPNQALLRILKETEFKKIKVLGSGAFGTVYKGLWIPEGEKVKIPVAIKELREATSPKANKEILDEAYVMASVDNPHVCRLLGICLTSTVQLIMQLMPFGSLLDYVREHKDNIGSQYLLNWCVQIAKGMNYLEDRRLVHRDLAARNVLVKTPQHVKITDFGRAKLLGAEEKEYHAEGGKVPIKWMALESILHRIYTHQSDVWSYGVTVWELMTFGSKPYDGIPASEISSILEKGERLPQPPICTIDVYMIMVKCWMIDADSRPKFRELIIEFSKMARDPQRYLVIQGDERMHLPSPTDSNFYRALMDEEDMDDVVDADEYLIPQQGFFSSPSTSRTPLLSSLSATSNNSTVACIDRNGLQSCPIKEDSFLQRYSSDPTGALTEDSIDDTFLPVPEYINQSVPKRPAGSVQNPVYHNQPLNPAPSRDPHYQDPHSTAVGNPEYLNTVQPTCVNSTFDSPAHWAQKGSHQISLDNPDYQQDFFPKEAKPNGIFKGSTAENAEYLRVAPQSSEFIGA
SMILES,IC50 [1] [µM],IC50 [2] [µM],IC50 [3] [µM],IC50 [4] [µM],IC50 [5] [µM],IC50 [6] [µM],inhibition [7] [%]
COc1cc(F)c(NC(=O)c2ccncc2OC)cc1Nc1nccc(-c2cn(C)c3ccccc23)n1,–,–,–,–,3.43,4.12,2.2
COc1cc(F)c(NC(=O)c2ccnc(O)c2)cc1Nc1nccc(-c2cn(C)c3ccccc23)n1,–,–,–,–,11.7,5.92,10.6
COc1cc(N(C)CCN(C)C)c(NC(=O)c2ccncn2)cc1Nc1nccc(-c2cn(CCCO)c3ccccc23)n1,0.59,0.041,0.161,> 1,2.66,2.12,65.6
COc1cc(N(C)CCN(C)C)c(NC(=O)c2ccnc(Cl)c2)cc1Nc1nccc(-c2cn(CCCO)c3ccccc23)n1,0.743,0.042,0.137,> 1,2.14,1.82,70.1
COc1cc(F)c(NC(=O)c2ncccn2)cc1Nc1nccc(-c2cn(C)c3ccccc23)n1,–,–,–,–,8.4,13.5,9.6
COc1cc(N(C)CCN(C)C)c(NC(=O)c2ccncn2)cc1Nc1nc(-c2cn(C)c3ccccc23)c2cccnc2n1,0.36,> 0.5,> 0.5,> 1,4.52,1.09,22.3
COc1cc(F)c(NC(=O)c2ccncc2)cc1Nc1nccc(-c2cn(C)c3ccccc23)n1,–,–,–,–,4.2,4.37,15.5
COc1cc(N(C)CCN(C)C)c(NC(=O)c2ccncc2OC)cc1Nc1nccc(-c2cn(CCCO)c3ccccc23)n1,–,–,–,–,2.39,1.97,49.5
COc1cc(N(C)CCN(C)C)c(NC(=O)c2nccn2C)cc1Nc1nc(-c2cn(C)c3ccccc23)c2cccnc2n1,> 0.5,0.42,> 0.5,> 1,5.64,4.2,19.4
COc1cc(N(C)CCN(C)C)c(NC(=O)c2cccnc2)cc1Nc1nccc(-c2cn(C)c3ccccc23)n1,> 0.5,0.36,> 0.5,> 1,1.6,1.75,41.6
COc1ccc(C(=O)Nc2cc(Nc3nc(-c4cn(C)c5ccccc45)c4cccnc4n3)c(OC)cc2N(C)CCN(C)C)nc1,–,–,–,–,4.23,1.16,12.8
COc1cc(F)c(NC(=O)c2ccnc(Cl)c2)cc1Nc1nccc(-c2cn(C)c3ccccc23)n1,–,–,–,–,6.89,4.33,9.6
COc1cc(N(C)CCN(C)C)c(NC(=O)c2ccncc2)cc1Nc1nccc(-c2cn(C)c3ccccc23)n1,> 0.5,0.391,> 0.5,> 1,10.4,6.86,24
COc1cc(N(C)CCN(C)C)c(NC(=O)c2ccnc(Cl)c2)cc1Nc1nccc(-c2cn(C)c3ccccc23)n1,> 0.5,> 0.5,0.42,> 1,0.97,2.05,42.9
COc1cc(N(C)CCN(C)C)c(NC(=O)c2ccncc2OC)cc1Nc1nccc(-c2cn(C)c3ccccc23)n1,> 0.5,0.1,> 0.5,> 1,2.69,1.01,28.5
COc1cc(N(C)C)c(NC(=O)c2ccncc2)cc1Nc1nccc(-c2cn(C)c3ccccc23)n1,–,–,–,–,9,1.47,18.1
COc1ccc(C(=O)Nc2cc(Nc3nccc(-c4cn(C)c5ccccc45)n3)c(OC)cc2N(C)C)nc1,–,–,–,–,5.15,2.13,1.2
COc1cc(F)c(NC(=O)c2ccccn2)cc1Nc1nccc(-c2cn(C)c3ccccc23)n1,–,–,–,–,7.98,16.5,-1.4
COc1cc(N(C)CCN(C)C)c(NC(=O)c2cnccn2)cc1Nc1nc(-c2cn(C)c3ccccc23)c2ccccc2n1,–,–,–,–,10.1,16.3,-9.4
COc1cc(N(C)C)c(NC(=O)c2ccncc2OC)cc1Nc1nccc(-c2cn(C)c3ccccc23)n1,–,–,–,–,3.03,12.1,7.9
COc1cc(N(C)C)c(NC(=O)c2ccnc(Cl)c2)cc1Nc1nccc(-c2cn(C)c3ccccc23)n1,–,–,–,–,3.43,9.2,9.4
COc1cc(N(C)C)c(NC(=O)c2ccccn2)cc1Nc1nccc(-c2cn(C)c3ccccc23)n1,–,–,–,–,8.29,10.3,10.5

# Further molecules by falling IC50 [5], results first:
IC50 [1] [µM],IC50 [2] [µM],IC50 [3] [µM],IC50 [4] [µM],IC50 [5] [µM],IC50 [6] [µM],inhibition [7] [%],SMILES
> 0.5,> 0.5,> 0.5,> 1,11.2,12,38.1,COc1cc(N(C)CCN(C)C)c(NC(=O)c2ccnc(O)c2)cc1Nc1nccc(-c2cn(C)c3ccccc23)n1
–,–,–,–,10.2,2.88,12.1,COc1cc(N(C)C)c(NC(=O)c2nccn2C)cc1Nc1nccc(-c2cn(C)c3ccccc23)n1
–,–,–,–,8.64,5.4,7.4,COc1cc(N(C)C)c(NC(=O)c2ncccn2)cc1Nc1nccc(-c2cn(C)c3ccccc23)n1
–,–,–,–,8.2,16.8,1.5,COc1ccc(C(=O)Nc2cc(Nc3nccc(-c4cn(C)c5ccccc45)n3)c(OC)cc2F)nc1
–,–,–,> 1,5.23,4.23,–,COc1ccc(C(=O)Nc2cc(Nc3nccc(-c4cn(C)c5ccccc45)n3)c(OC)cc2N(C)CCN(C)C)nc1
–,–,–,–,5.16,1.25,8.8,COc1cc(N(C)C)c(NC(=O)c2ccncn2)cc1Nc1nccc(-c2cn(C)c3ccccc23)n1
–,–,–,–,5.14,10.6,7.7,COc1cc(F)c(NC(=O)c2nccn2C)cc1Nc1nccc(-c2cn(C)c3ccccc23)n1
0.224,0.017,> 0.5,> 1,4.33,1.22,38.2,COc1cc(N(C)CCN(C)C)c(NC(=O)c2cnccn2)cc1Nc1nccc(-c2cn(C)c3ccccc23)n1
–,–,–,–,3.56,3.12,24.7,COc1cc(N(C)C)c(NC(=O)c2c[nH]cn2)cc1Nc1nccc(-c2cn(C)c3ccccc23)n1
–,–,–,–,2.84,3.66,-1.8,COc1cc(N(C)C)c(NC(=O)c2ccnc(Cl)n2)cc1Nc1nccc(-c2cn(C)c3ccccc23)n1
–,–,–,> 1,2.55,3.32,–,COc1cc(N(C)CCN(C)C)c(NC(=O)c2nccn2C)cc1Nc1nccc(-c2cn(C)c3ccccc23)n1
–,–,–,–,2.49,24.8,9.7,COc1cc(F)c(NC(=O)c2cnccn2)cc1Nc1nccc(-c2cn(C)c3ccccc23)n1
0.146,0.03,> 0.5,> 1,2.49,0.65,38.2,COc1cc(N(C)CCN(C)C)c(NC(=O)c2ncccn2)cc1Nc1nccc(-c2cn(C)c3ccccc23)n1
